Series [1] has as its system HGC-27 subcutaneous xenografts (human gastric carcinoma cells, PIK3CA mutation, PTEN null). In words: HGC-27 gastric cancer xenograft model in female athymic nude mice (Example 1).
Description: Experiments are performed in female Hsd:Athymic Nude-FoxN1^nu Nude mice approximately 8-12 weeks of age at treatment start.
HGC-27 cells, which are human gastric carcinoma cells with a PIK3CA mutation (c1624G>A, p.E542K) and PTEN null, are grown in MEM culture medium containing 1% non-essential amino acid with 10% heat-inactivated FCS, and are incubated at 37° C. in a 5% CO2 humidified atmosphere.
HGC-27 tumors are established in vivo by injection 5×10^6 cells in 200 μl (100 μl PBS+100 μl Matrigel) (Cat #354234, BD Bioscience, Bedford, Mass.) subcutaneous into the right flank of the animals. The efficacy experiments are started when the tumors reach an average size of approximately 230 mm^3 (day 12 post cell injection).
Compound A is formulated in 0.5% Methylcellulose (MC). 80 mg of Compound A is added to 16 ml of 0.5% MC, then stirred/vortexed and sonicated in water bath sonicator for 1 h to obtain 5 mg/ml homogeneous suspension. 0.5% MC is used to dilute the 5 mg/ml solution to 2.5 mg/ml and 1.25 mg/ml for dosing. Compound A or vehicle is administered orally at a volume of 10 ml/kg.
Tumor volumes are measured with calipers and determined according to the formula: length×diameter^2×π/6. Antitumor activity is expressed as T/C % which is determined according to the formula: (mean change of tumor volume of treated animals/mean change of tumor volume of control animals)×100. Regressions (%) are calculated according to the formula ((mean tumor volume at end of treatment-mean tumor volume at start of treatment)/mean tumor volume at start of treatment)×100. Body weights and tumor volumes are recorded twice a week.
Where applicable, data is presented as mean±SEM. For all tests, the level of significance is set at p<0.05. For tumor volumes, comparisons between treatment groups and vehicle control group are done using one-way ANOVA followed by Dunnett's test. Tumor volumes comparisons between treatment groups are done using Kruskal-Wallis one way ANOVA post-hoc Student Newman Kuels test or Dunn's test. In the first experiment, Compound A is orally administered daily to HGC-27 subcutaneous xenografts, tumor-bearing nude mice at a dose of 12.5 mg/kg, 25 mg/kg and 50 mg/kg.
Series [2] concerns NCI-N87 tumors (human gastric carcinoma cells). In words: NCI-N87 gastric cancer xenograft model, second experiment (Example 3). It is filed as in vivo, mice. The settings on record: single agent. The procedure: Cells are harvested with trypsin (0.25% w/v)-EDTA (0.53 mM), are re-suspended in culture medium (with additives) and are counted with a Casy® system. Cell culture reagents are purchased from BioConcept (Allschwil, Switzerland). NCI-N87 tumors are established by injecting […] to 1×10^7 cells (in HBSS containing 50% v/v Matrigel) subcutaneously with a 23 Gauge needle. When tumors are established and reach between 180 and 210 mm^3, animals are randomized into treatment groups and the treatments are initiated. Compound A is formulated in NMP/PEG300/Solutol HS15/water (10:30:20:40% vol/vol) The compound is fully dissolved in NMP first and water is added immediately prior to administration to animals. […] All doses of AUY922 refer to the free base equivalent. AUY922 is administered iv at a volume of 10 ml/kg, twice a week. […] Pairwise comparisons are done using a one way ANOVA followed by Tukey's test. The level of significance of body weight change within a group between start and end of the treatment period is determined using a paired t-test. […] Calculations are performed using GraphPad Prism 4 for windows (GraphPad Software Inc.). In addition, an approximation of drug interactions is made using the method described by Clarke R., “Issues in experimental design and endpoint analysis in the study of experimental cytotoxic agents in vivo in breast cancer and other models”, Breast Cancer Res. Treat, 46, 255-78 (1997). This is applied to MV (Tumor volume).

Series [3] deals with KYSE-70 tumors (esophageal squamous cell carcinoma cells). In words: KYSE-70 esophageal squamous cell carcinoma xenograft model (Example 4). Type of series: in vivo, mice. Conditions: Group 4: 50 mg/kg AUY922 intravenous twice a week. The procedure:
KYSE-70 tumors are established by injecting 7.5×10^6 KYSE-70 cells, which are esophageal squamous cell carcinoma cells, in 100 μl cell suspension, with a 23 gauge needle subcutaneously on the right flank of the mice. Ten (10) days after implantation, […]. When tumors are established and reach about 156 mm^3 (minimum 86 mm^3, maximum 218 mm^3) approximately 10 days after implantation, 48 animals are selected and randomized into 6 treatment groups (n=8). Placebo control is formulated as 10 ml/kg of 250 μl NMP, 750 μl PEG300, 500 μl Solutol HS15, and 1000 μl water for delivery once daily per oral (Placebo 1) and as 10 ml/kg of 2.5 ml Glucose for delivery intravenously twice a week (Placebo 2). Compound A is formulated in NMP/PEG300/Solutol HS15/water (10:30:20:40% vol/vol). The compound is fully dissolved in NMP first and water is added immediately prior to administration to animals. […] All doses of AUY922 refer to the free base equivalent. AUY922 is administered iv at a volume of 10 ml/kg, twice a week.

Series [4] deals with NCI-N87 tumors (human gastric carcinoma cells). In words: NCI-N87 gastric cancer xenograft model, first experiment (Example 3). It is filed as in vivo, mice. The procedure:
Cells are harvested with trypsin (0.25% w/v)-EDTA (0.53 mM), are re-suspended in culture medium (with additives) and are counted with a Casy® system. Cell culture reagents are purchased from BioConcept (Allschwil, Switzerland). NCI-N87 tumors are established by injecting […] to 1×10^7 cells (in HBSS containing 50% v/v Matrigel) subcutaneously with a 23 Gauge needle. When tumors are established and reach between 180 and 210 mm^3, animals are randomized into treatment groups and the treatments are initiated. Compound A is formulated in NMP/PEG300/Solutol HS15/water (10:30:20:40% vol/vol) The compound is fully dissolved in NMP first and water is added immediately prior to administration to animals. […] All doses of AUY922 refer to the free base equivalent. AUY922 is administered iv at a volume of 10 ml/kg, twice a week. […] Pairwise comparisons are done using a one way ANOVA followed by Tukey's test. The level of significance of body weight change within a group between start and end of the treatment period is determined using a paired t-test. […] Calculations are performed using GraphPad Prism 4 for windows (GraphPad Software Inc.). In addition, an approximation of drug interactions is made using the method described by Clarke R., “Issues in experimental design and endpoint analysis in the study of experimental cytotoxic agents in vivo in breast cancer and other models”, Breast Cancer Res. Treat, 46, 255-78 (1997). This is applied to MV (Tumor volume). Female athymic nude mice are treated orally once a day with 50 mg/kg Compound A, alone or in combination with 50 mg/kg of AUY922 administered intravenously twice a week. […] For compound A, B or the combination AB (with Vehicle Control group C), antagonism is predicted when the calculation AB/C>A/C×B/C, additive effect: AB/C=A/C×B/C, synergistic interactions are predicted to occur when AB/C<[…].

Series [5] has as its system HGC-27 subcutaneous xenografts. In words: HGC-27 gastric cancer xenograft model, treatment from day 20 for 14 days (Example 2). Type of series: in vivo, mice. The settings on record: AUY922 50 mg/kg 2q.w. i.v. An excerpt:
The procedure described in Example 1 is followed with the following modifications: Treatments are initiated on day 20 following tumor cell implantation of 5 million HCG-27 cells, when the average tumor volume is 316 mm^3 (164-485 mm^3).

For series [6], the system named is NCI-N87 tumors (human gastric carcinoma cells). In words: NCI-N87 gastric cancer xenograft model, third experiment (Example 3). The settings on record: AUY922 50 mg/kg, single agent. Type of series: in vivo, mice. The procedure: Cells are harvested with trypsin (0.25% w/v)-EDTA (0.53 mM), are re-suspended in culture medium (with additives) and are counted with a Casy® system. Cell culture reagents are purchased from BioConcept (Allschwil, Switzerland). NCI-N87 tumors are established by injecting […] to 1×10^7 cells (in HBSS containing 50% v/v Matrigel) subcutaneously with a 23 Gauge needle. When tumors are established and reach between 180 and 210 mm^3, animals are randomized into treatment groups and the treatments are initiated. Compound A is formulated in NMP/PEG300/Solutol HS15/water (10:30:20:40% vol/vol) The compound is fully dissolved in NMP first and water is added immediately prior to administration to animals. […] All doses of AUY922 refer to the free base equivalent. AUY922 is administered iv at a volume of 10 ml/kg, twice a week. […] Pairwise comparisons are done using a one way ANOVA followed by Tukey's test. The level of significance of body weight change within a group between start and end of the treatment period is determined using a paired t-test. […] Calculations are performed using GraphPad Prism 4 for windows (GraphPad Software Inc.). In addition, an approximation of drug interactions is made using the method described by Clarke R., “Issues in experimental design and endpoint analysis in the study of experimental cytotoxic agents in vivo in breast cancer and other models”, Breast Cancer Res. Treat, 46, 255-78 (1997). This is applied to MV (Tumor volume). In the third efficacy experiment, the tumor model is set up as in the second experiment.

Each structure is given as a SMILES string.

For `CCNC(=O)c1noc(-c2cc(C(C)C)c(O)cc2O)c1-c1ccc(CN2CCOCC2)cc1` [AUY922, 5-(2,4-Dihydroxy-5-isopropyl-phenyl)-4-(4-morpholin-4-ylmethyl-phenyl)-isoxazole-3-carboxylic acid ethylamide, reference compound], in series [1] (AUY922 50 mg/kg free base i.v. twice a week), the “T/C %” value was 60.5%. In series [1] (AUY922 50 mg/kg i.v. twice a week), this molecule gave a body weight change of 6.6±2.6%. In addition, the “mean change of tumor volume” value is recorded as 792.2±159 mm^3 in series [1] (AUY922 50 mg/kg i.v. twice a week, mean±SEM); 17.9±11.0 mm^3 in series [2] (AUY922 50 mg/kg, ±SEM); −15.1±21.4 mm^3 in series [4] (AUY922 50 mg/kg i.v. twice a week, single agent, ±SEM); 27.4±10.2 mm^3 in series [6] (±SEM). Also, the T/C – broadly, the result in the treated group divided by that in the control group, in per cent – in series [2] (AUY922 50 mg/kg i.v. twice per week) is 4.7%; in series [5] it was 57%; in series [6], 14%. Besides, in series [3] (Day 10), the “T/C [%] Day 10” value was 100.0%. The “T/C [%] Day 14” value in series [3] (Day 14) is reported as 145.3%. Besides, the “T/C [%] Day 17” value in series [3] (Day 17) worked out at 144.4%. In series [3] (Day 21), the “T/C [%] Day 21” value stood at 131.8%. For the same molecule, in series [3] (Day 24), the “T/C [%] Day 24” value came out at 141.1%. Further, the tumor regressions in series [4] (AUY922 50 mg/kg i.v. twice a week, single agent) was 7%. For the same molecule, in series [4] (AUY922 50 mg/kg i.v. twice a week, change of tumor volume (mm^3)), the “ΔTV AUY922 (B)” value was −15.1. Besides, the B/C in series [4] (ΔTV of AUY922 over vehicle control, Clarke method) is −0.061.
